≈ marks a conversion by molar mass, not a printed value. Where “and” joins values, the source holds several entries; their conditions need not be identical. Equal values may be shown once. Read-outs that look alike come from different tables or passages of the source.
Tests used:
[1] = system: C. difficile; experiment: microbe, parasite or virus in culture; assay type: cell-based
[2] = target: TcdB027 (Clostridioides difficile, UniProt A0A9R0CDJ3); assay type: cell-based, C. difficile
[3] = target: T1, TcdA (Clostridioides difficile, UniProt P16154); experiment: cell-based; assay type: cell-based, C. difficile; conditions: for IC50: IC50 TcdA, means ± s.d.
T1 construct: made in house; host or cells: Bacillus megaterium (the general sentence on recombinant toxins)

[4] = system: CaCo-2 cells; experiment: CaCo-2 monolayer integrity / trans-epithelial resistance after TcdB; assay type: cell-based, human
[5] = system: C. difficile; assay type: in vivo, mice
[6] = system: C. clostridioforme ATCC25537; experiment: organism not typed; assay type: cell-based
[7] = system: C. sporogenes ATCC3584; experiment: microbe, parasite or virus in culture; assay type: cell-based; conditions: Clostridium sporogenes
[8] = rats; cited from earlier work
[9] = system: C. difficile; experiment: microbe, parasite or virus in culture; assay type: cell-based; remark: listed apart in the source
[10] = target: T2, TcdB (Clostridioides difficile, UniProt P18177); experiment: cell-based; design: species or system C. difficile; conditions: for inhibition at 40 µM: IMR-90, read-out: inhibition of TcdB-induced cell rounding
Target sequence in this assay (P18177 2-2366 limits assumed): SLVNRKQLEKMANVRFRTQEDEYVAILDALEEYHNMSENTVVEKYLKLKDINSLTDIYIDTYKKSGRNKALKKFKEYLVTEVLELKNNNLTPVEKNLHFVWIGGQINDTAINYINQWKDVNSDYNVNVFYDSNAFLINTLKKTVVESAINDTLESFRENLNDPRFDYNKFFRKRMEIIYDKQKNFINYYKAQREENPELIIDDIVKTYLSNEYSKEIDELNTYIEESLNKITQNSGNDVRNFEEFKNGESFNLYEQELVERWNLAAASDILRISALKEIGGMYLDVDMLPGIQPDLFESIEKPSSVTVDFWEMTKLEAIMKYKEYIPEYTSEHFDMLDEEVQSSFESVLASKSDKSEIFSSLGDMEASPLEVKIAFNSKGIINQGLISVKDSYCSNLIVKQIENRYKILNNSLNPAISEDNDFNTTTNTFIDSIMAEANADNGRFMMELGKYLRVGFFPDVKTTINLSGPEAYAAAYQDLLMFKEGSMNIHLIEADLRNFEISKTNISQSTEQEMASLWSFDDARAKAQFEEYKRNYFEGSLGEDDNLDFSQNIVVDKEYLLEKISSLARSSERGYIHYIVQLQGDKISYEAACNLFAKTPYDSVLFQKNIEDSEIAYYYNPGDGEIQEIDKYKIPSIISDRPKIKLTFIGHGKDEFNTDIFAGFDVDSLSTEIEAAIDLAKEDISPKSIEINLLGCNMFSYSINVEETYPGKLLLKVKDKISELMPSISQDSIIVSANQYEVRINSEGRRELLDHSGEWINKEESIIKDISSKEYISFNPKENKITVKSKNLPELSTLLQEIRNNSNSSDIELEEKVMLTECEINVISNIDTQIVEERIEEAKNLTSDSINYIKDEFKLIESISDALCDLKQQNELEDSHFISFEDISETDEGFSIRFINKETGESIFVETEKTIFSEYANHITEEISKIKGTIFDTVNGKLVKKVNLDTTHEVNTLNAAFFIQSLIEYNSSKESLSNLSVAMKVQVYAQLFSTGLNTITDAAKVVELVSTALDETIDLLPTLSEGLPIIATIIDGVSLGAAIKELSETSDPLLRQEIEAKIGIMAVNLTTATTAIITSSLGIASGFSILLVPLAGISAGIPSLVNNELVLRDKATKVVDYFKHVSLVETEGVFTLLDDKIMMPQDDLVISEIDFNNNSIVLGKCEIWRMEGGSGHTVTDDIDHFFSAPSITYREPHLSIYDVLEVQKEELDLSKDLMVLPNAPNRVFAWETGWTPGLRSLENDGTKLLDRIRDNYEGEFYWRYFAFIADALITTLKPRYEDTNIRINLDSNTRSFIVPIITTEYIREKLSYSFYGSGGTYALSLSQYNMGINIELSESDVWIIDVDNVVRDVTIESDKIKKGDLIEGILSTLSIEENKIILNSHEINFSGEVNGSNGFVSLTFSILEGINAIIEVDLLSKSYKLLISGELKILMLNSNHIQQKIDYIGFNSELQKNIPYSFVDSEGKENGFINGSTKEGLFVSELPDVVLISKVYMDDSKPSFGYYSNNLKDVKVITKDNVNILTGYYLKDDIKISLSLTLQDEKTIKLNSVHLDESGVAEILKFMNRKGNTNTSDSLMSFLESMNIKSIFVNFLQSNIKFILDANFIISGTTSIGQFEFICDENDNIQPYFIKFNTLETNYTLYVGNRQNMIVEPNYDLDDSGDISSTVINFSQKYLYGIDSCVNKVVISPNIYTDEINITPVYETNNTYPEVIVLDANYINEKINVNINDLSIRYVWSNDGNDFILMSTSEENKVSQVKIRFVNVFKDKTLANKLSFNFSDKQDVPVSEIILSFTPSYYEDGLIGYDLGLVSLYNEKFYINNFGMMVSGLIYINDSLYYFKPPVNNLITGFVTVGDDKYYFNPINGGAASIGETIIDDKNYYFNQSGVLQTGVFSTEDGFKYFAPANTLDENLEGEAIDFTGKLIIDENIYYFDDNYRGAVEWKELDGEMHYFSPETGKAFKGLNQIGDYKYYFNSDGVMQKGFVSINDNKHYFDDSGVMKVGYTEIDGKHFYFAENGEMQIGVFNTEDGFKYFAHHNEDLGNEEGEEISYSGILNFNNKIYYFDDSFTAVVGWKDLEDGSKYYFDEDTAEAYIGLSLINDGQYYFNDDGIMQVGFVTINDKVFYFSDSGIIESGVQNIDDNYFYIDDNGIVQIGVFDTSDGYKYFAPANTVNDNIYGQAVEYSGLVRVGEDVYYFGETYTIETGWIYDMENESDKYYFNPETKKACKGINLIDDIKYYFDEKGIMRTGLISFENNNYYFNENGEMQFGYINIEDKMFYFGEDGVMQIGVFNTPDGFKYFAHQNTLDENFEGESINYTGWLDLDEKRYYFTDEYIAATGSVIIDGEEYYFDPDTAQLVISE

[11] = system: Rac1 glucosylation; experiment: Intracellular Rac1 glucosylation Western blot; assay type: cell-based, human; conditions: IMR-90 cells, niclosamide 15 min then TcdB, harvested 1 h later
Procedure: (§1) FIG. 2. […] (a) Representative Western blot image for intracellular Rac1 glucosylation. […] Cells were harvested in lysis buffer 1 h later and processed for Western blot as described in Online Methods. […] (b) In vitro GTD glucosyltransferase assay. […] Activity was measured as described in the Online Methods. (c) In vitro auto-processing assay.

[12] = target: T3, TcdB glucosyltransferase domain (GTD) (Clostridioides difficile, UniProt P18177); experiment: In vitro GTD glucosyltransferase assay; assay type: biochemical, C. difficile; conditions: up to 10 μM niclosamide, n=3
T3 construct: The TcdB glucosyltransferase domain (GTD); made in house
Procedure: as §1
For each reaction containing 10 nM GTD and 25 μM UDP-glucose, compound was added (1% final DMSO) and preincubated 30 minutes, followed by addition of gstRac1 to 0.8 μM. The reaction was stopped after a 60 min reaction time with an equal volume of Laemmli loading buffer plus β-mercaptoethanol (Bio-Rad, Mississauga. ON), heated to 90° C. before immediately loading on an SDS polyacrylamide gel. […]
Reactions were started with the simultaneous addition of 2.5 μl each of GST-Rac1 (20 μM final) and a mixture of 0.5 μCi of UDP-[6 ^3H]-glucose (0.5 μM final) and cold UDP-glucose (19.5 μM final). […] The beads were allowed to settle overnight at room temperature to increase the signal to background ratio before being analyzed on a TopCount NXT scintillation counter (PerkinElmer). Results were analyzed using GraphPad Prism 5.0.
Experiments were performed as per the manufacturer's instructions. […] Results were analyzed with SoftMax Pro 6.2.2 and GraphPad Prism 5.0.

[13] = target: T4, TcdB APD domain (Clostridioides difficile, UniProt P18177); experiment: In vitro inositol hexakisphosphate-induced autoprocessing (cysteine protease) assay; assay type: biochemical, C. difficile; conditions: up to 10 μM niclosamide
T4 construct: Cell lysates were prepared as described for full-length TcdB; made in house; host or cells: Bacillus megaterium
Excerpt: Cleavage was visualized by electrophoresing the samples on SDS polyacrylamide gels and staining with Coomassie Blue R250.

[14] = system: IMR90 cells; experiment: Lysotracker assay, endosomal pH neutralization; assay type: cell-based, human; conditions: pre-treating cells
Procedure: Endosomal pH neutralization was assayed essentially as described by Slater et al. (55); IMR90 cells in complete EMEM were plated at 14,000 cells/well (˜95% confluency). After 24 h the media was changed to SFM for 60 minutes, then compound was added to 40 μM and incubated at 37° C. for 2 h. Lysotracker red DND-99 and Hoechst (Life Technologies) were added to 0.1 μM and 1 μM, respectively, and incubated for 60 minutes. Excess dye was removed by media change and the fluorescence at ex/em 574/594 was read on an Envision plate reader (Perkin Elmer). Representative cell images were taken using a Zeiss Axiovert fluorescence microscope using DAPI and Texas Red filters to visualize the Hoechst and Lysotracker staining, respectively.

[15] = target: T2, TcdB
Target sequence in this assay (P18177 2-2366 limits assumed): as above
Procedure: Loss of cellular ATP as a marker of high dose (1 nM) TcdB toxicity was measured as described for the Arrayscan screen protocol, except that CellTiter-Glo reagent (Promega, Madison, Wis.) was added to the cells 3 h post toxin challenge, and luminescence was recorded on a Spectramax M5 plate reader.

[16] = target: T2, TcdB; conditions: mammalian cells expressing all three known receptors
Target sequence in this assay (P18177 2-2366 limits assumed): as above
Procedure: TcdB binding to Vero cells was assessed as described earlier with minor modifications(57). […] Mixtures were then added to confluent cultures of pre-chilled Vero cells and plates were incubated on ice for 45 min. Plates were then washed 3 times with cold PBS and harvested by scraping. Membranes were isolated, and samples analyzed by Western blot as previously described (57).

[17] = target: T2, TcdB; remark: listed apart in the source
Procedure: TcdB protein was diluted in phosphate buffer (100 mM KPO4, 150 mM NaCl, pH 7) containing 5×SYPRO Orange (Invitrogen, Burlington, ON) and a serial dilution of test compound. A Biorad CFX96 qRT-PCR thermocycler was used to establish a temperature gradient from 15° C. to 95° C. in 30 s increments, while simultaneously recording the increase in SYPRO Orange fluorescence as a consequence of binding to hydrophobic regions exposed on unfolded proteins. The Bio-Rad CFX Manager 3.1 software was used to integrate the fluorescence curves to calculate the melting point.

[18] = target: T5, CDT (Clostridioides difficile, UniProt A0A9R0BM17+A0A9R0BM20); experiment: Inhibition of C. difficile toxin-induced cytotoxicity, CDT (actin depolymerization); conditions: same doses that protect cells from TcdB
T5 sequence (A0A9R0BM17 210-876): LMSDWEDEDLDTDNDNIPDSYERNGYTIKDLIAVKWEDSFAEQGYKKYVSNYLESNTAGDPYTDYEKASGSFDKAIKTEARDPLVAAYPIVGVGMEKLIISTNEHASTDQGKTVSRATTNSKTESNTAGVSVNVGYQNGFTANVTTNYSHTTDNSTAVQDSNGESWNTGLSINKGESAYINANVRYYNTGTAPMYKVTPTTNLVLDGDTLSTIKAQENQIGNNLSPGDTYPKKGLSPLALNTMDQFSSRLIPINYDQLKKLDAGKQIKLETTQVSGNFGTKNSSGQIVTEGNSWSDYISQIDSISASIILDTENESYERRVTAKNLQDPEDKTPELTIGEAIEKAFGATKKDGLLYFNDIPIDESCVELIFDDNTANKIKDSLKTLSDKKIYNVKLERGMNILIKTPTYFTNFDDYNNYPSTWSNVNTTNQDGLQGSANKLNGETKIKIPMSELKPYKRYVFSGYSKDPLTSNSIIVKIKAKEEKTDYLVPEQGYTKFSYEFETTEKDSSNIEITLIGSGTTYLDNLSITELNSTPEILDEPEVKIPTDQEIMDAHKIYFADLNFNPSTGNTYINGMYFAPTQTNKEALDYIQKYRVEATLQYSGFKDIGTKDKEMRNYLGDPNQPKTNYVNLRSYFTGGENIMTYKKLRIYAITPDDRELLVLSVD
T5 sequence (A0A9R0BM20 44-463): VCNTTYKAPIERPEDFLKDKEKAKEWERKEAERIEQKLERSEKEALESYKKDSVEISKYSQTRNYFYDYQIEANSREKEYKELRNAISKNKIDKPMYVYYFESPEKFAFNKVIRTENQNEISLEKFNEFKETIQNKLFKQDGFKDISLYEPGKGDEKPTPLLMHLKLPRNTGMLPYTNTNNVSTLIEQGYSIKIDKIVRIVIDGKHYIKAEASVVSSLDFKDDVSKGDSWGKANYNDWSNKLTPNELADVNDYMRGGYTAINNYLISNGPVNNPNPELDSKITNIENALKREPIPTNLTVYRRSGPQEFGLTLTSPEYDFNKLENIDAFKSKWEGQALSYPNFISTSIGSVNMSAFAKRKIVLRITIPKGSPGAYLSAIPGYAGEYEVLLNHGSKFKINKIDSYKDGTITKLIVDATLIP
Procedure: Cells were stained with 1 uM Hoechst for 30 min, then combined photos were taken for each compound at a concentration corresponding to maximum protection from TcdB using a 10× objective and appropriate filter sets for Hoechst and Alexa488 fluorescence (Zeiss).

T1 sequence (P16154 whole entry, looked up): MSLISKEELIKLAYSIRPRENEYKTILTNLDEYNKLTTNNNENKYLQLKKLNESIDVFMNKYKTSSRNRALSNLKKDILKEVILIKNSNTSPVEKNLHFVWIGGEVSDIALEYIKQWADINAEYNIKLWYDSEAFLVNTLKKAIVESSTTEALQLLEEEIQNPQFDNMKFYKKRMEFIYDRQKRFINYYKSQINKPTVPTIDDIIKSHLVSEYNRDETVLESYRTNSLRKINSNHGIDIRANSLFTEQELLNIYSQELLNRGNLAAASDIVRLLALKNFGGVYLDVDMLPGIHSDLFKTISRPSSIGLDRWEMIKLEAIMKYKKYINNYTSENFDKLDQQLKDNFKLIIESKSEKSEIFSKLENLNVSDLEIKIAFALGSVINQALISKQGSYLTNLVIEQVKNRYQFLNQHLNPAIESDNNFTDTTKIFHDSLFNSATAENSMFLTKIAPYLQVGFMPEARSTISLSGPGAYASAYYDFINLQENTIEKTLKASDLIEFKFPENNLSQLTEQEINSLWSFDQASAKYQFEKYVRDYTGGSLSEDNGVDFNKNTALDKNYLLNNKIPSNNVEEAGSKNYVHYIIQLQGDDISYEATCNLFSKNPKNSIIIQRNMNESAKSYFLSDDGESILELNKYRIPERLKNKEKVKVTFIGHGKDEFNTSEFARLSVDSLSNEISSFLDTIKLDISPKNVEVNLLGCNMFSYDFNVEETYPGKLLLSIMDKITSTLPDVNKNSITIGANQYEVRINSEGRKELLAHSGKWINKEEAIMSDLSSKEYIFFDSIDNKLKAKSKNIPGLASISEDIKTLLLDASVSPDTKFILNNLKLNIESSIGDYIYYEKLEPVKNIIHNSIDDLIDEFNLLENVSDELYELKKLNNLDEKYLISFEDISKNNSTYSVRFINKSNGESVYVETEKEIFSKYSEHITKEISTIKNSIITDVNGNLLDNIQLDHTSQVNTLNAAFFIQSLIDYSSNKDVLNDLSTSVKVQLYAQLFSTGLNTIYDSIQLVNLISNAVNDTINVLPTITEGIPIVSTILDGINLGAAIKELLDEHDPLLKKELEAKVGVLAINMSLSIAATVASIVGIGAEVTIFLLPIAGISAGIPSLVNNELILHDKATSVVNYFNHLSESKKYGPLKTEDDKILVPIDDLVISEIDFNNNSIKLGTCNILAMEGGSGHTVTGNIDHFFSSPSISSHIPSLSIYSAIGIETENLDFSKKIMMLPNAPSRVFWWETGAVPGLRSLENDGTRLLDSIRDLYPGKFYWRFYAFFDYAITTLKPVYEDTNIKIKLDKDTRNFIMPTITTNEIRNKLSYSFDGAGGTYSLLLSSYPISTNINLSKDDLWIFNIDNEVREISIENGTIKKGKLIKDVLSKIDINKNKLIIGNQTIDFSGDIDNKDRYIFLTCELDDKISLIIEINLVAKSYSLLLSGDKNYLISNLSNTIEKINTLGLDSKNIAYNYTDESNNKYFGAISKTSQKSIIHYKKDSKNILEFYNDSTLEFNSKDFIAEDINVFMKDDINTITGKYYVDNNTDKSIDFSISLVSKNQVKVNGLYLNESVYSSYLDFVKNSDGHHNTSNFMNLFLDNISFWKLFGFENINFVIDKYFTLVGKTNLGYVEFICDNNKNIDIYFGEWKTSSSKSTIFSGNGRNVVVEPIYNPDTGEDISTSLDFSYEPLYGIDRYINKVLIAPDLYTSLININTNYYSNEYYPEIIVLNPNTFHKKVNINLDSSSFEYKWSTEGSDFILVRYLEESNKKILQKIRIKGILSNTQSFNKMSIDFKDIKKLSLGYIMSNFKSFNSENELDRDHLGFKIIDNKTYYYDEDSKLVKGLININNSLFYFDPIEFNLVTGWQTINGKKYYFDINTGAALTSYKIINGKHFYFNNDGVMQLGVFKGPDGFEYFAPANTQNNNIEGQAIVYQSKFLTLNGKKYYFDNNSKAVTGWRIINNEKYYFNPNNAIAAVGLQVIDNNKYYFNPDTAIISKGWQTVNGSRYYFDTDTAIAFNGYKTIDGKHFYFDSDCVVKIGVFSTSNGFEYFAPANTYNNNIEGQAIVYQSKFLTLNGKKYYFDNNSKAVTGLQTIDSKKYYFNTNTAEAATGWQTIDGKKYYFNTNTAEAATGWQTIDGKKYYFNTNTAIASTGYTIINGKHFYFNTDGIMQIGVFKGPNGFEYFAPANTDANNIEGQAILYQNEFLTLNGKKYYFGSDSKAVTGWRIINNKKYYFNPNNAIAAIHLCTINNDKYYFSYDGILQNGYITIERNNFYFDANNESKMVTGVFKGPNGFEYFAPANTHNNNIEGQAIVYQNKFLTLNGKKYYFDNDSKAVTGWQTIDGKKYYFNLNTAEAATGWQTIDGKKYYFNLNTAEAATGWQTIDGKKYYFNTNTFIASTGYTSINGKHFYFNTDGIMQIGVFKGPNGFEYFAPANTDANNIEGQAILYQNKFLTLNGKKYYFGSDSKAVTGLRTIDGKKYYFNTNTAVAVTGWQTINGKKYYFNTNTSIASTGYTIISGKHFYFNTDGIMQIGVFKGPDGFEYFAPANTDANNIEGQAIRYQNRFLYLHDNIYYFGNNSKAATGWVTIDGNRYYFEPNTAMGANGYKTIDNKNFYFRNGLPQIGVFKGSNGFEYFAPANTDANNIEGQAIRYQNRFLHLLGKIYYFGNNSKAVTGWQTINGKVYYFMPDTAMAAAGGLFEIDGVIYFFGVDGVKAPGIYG

CCc1c(Cl)c(O)c(Cl)c(O)c1C(=O)O[C@H]1[C@H](O)[C@H](OC)[C@H](OC/C2=C\C=C\C[C@H](O)/C(C)=C/[C@H](CC)[C@@H](O[C@@H]3OC(C)(C)[C@@H](OC(=O)C(C)C)[C@H](O)[C@@H]3O)/C(C)=C/C(C)=C/C[C@@H]([C@@H](C)O)OC2=O)O[C@@H]1C [Fidaxomicin]
MIC [1]: 0.06 μg/mL and 0.06^4 μg/mL | MIC ([1]; Clostridioides difficile): 0.12 µg/mL (≈ 0.113 µM)

O=C(Nc1ccc([N+](=O)[O-])cc1Cl)c1cc(Cl)ccc1O [NEN, niclosamide ethanolamine]
protection against TcdB derived from hypervirulent strains [2]: protected | IC50 [3]: 550 ± 80 nM | TEER assay, dose dependence ([4]; Caco-2 cell monolayers): dose-dependently protects | survival of recurrence ([5]; NEN 50 mg/kg): all NEN-treated mice survived recurrence | survival from C. difficile challenge ([5]; NEN 50 mg/kg oral gavage, vancomycin 0.5 mg/mL in drinking water, more than 60% of control moribund): all mice in the NEN group survived | diarrhea scores at recurrence ([5]; mouse, in vivo): less severe diarrhea scores | MIC [6]: > 19 µg/mL | MIC [7]: > 19 µg/mL | median oral lethal dose (LD50) [8]: 10,000 mg/kg body weight

CN[C@H](CC(C)C)C(=O)N[C@H]1C(=O)N[C@@H](CC(N)=O)C(=O)N[C@H]2C(=O)N[C@H]3C(=O)N[C@H](C(=O)N[C@H](C(=O)O)c4cc(O)cc(O)c4-c4cc3ccc4O)[C@H](O)c3ccc(c(Cl)c3)Oc3cc2cc(c3O[C@@H]2O[C@H](CO)[C@@H](O)[C@H](O)[C@H]2O[C@H]2C[C@](C)(N)[C@H](O)[C@H](C)O2)Oc2ccc(cc2Cl)[C@H]1O [Vancomycin]
MIC [9]: 2 µg/mL (≈ 1.38 µM) | MIC ([9]; Clostridioides difficile): 1 µg/mL (≈ 0.69 µM) | MIC [6]: 4 µg/mL (≈ 2.76 µM) | MIC [7]: 8 µg/mL (≈ 5.52 µM)

Cc1cc(C(C#N)c2ccc(Cl)cc2)c(Cl)cc1NC(=O)c1cc(I)cc(I)c1O (stereo not shown) [closantel]
inhibition of TcdB-induced cell rounding ([10]; high-throughput screen, libraries screened at 40 μM, IMR90 cells): 60%

O=C(Nc1ccc([N+](=O)[O-])cc1Cl)c1cc(Cl)ccc1O [niclosamide]
inhibition at 40 µM [10]: 71% | Protection from TcdB-induced cell-rounding (extent) ([10]; human IMR-90 fibroblasts co-incubated with niclosamide and TcdB): complete | protection from TcdA-induced cell rounding [3]: completely protected | IC50 [3]: 500 ± 100 nM | TcdB-induced reduction in Phalloidin staining ([4]; Caco-2 cells): prevented | TcdB-induced disruption of monolayer integrity ([4]; co-treatment with TcdB, confluent CaCo-2 monolayer): prevented | Rac1 glucosylation in cells [11]: dose-dependently inhibits | inhibition of GTD enzymatic activity in vitro [12]: no direct inhibition | Release of GTD by the APD domain (autoprocessing) [13]: unaffected | Lysotracker fluorescent staining (endosomal pH) [14]: reduces Lysotracker fluorescent staining | TcdB-induced necrosis [15]: inhibited | TcdB binding to the cell surface [16]: did not affect | direct binding interaction with TcdB (thermal stability) [17]: no evidence for a direct binding interaction | protection from CDT-induced damage (depolymerization of the actin cytoskeleton) [18]: completely protected

O=C(Nc1cc(Cl)cc(Cl)c1O)c1c(O)c(Cl)cc(Cl)c1Cl [oxyclozanide]
inhibition at 40 µM [10]: 43%

Source: US11166926B2 (priority 2018, dated 2021)
